≈ marks a conversion by molar mass, not a printed value. Blank lines part the entries; values can stand above or below the compound they belong to.
What was measured:
[1] = Insolubility observed in the HepG2 viability assay; format: physicochemical; details: RPMI culture medium of the HepG2 viability assay, 37 °C, kinetic from dmso stock, RPMI medium (1% L-Glu, 10% FCS), read-out: concentration from/at which insoluble
Method: Cell viability was assayed on HepG2 cells. HepG2 cells were cultured in 96-well black culture plates with transparent bottom in RPMI medium (1% L-Glu, 10% FCS). 3 hours after plating, different drug concentrations (0.1 μM-100 μM) or DMSO as control were added. Chlorpromazine hydrochloride (Sigma, # C0982) and cycloheximide (Sigma, # C1988) were used as control substances. Each concentration was run in triplicates. After 48 hours of incubation, Alamar Blue reagent (BIOSOURCE, # DAL1100) was added and plates were incubated for 4 hours at […]. Absorbance was measured in the Tecan-plate reader (Tecan, infinite M200) at 570 nm and 600 nm. Product example 1 was insoluble from a concentration of 50 μM, product example 33 from 30 μM and product example 23 at 100 μM.

[2] = tested on: HTT-Q53 protein; test: GST-Htt-Q53 filter assay with conformational CAG antibody; format: biochemical; details: samples at 0, 4, 5 and 6 h, 30° C.
Method: GST-Htt-Q53-protein stock solution was ultra-centrifugated (40 min, 55.000 rpm [TLA-55 rotor], 4° C.); the supernatant was diluted with H2O to a final concentration of 2 μM. DMSO as a control, or drugs at various concentrations were added to the supernatant of GST-Htt-Q53 protein which was preincubated with PreScission Protease (GE Healthcare, #27-0843-01) in Tris-buffer (A:B=1:1; A:50 mM Tris, 150 mM NaCl, pH=6.8; B:1 mM EDTA, pH=8.0+10 mM DTT) and incubated at 30° C. (300 rpm). Samples were taken at 0, 4, 5 and 6 h. The samples were diluted with SDS-buffer (4% SDS, 100 mM DTT) and heated at 98° C. for 5 min. Samples were filtered through a cellulose-acetate membrane which was equilibrated with SDS solution (0.1%). The membrane was washed twice (SDS, 0.1%), blocked with skim milk (3% in PBS) for 30 min and developed with CAG antibody over night at 4° C. and with peroxidase labeled anti rabbit-antibody for 1 h at room temperature. The membrane was washed (2×TBS-0.05% Tween-20, 2×TBS) and luminescence was recorded with Chem Glow.

[3] = biological target: BSA (Bos taurus, UniProt P02769); test: Hydrazone hydrolysis in ammonium acetate solution with addition of BSA (RP-HPLC); format: physicochemical; details: bovine, BSA (5 µM) in ammonium acetate solution, 20 μM hydrazone, 10 mM ammonium acetate, read-out: free soluble hydrazone after addition of BSA (converted)
Sequence of BSA (P02769 25-607): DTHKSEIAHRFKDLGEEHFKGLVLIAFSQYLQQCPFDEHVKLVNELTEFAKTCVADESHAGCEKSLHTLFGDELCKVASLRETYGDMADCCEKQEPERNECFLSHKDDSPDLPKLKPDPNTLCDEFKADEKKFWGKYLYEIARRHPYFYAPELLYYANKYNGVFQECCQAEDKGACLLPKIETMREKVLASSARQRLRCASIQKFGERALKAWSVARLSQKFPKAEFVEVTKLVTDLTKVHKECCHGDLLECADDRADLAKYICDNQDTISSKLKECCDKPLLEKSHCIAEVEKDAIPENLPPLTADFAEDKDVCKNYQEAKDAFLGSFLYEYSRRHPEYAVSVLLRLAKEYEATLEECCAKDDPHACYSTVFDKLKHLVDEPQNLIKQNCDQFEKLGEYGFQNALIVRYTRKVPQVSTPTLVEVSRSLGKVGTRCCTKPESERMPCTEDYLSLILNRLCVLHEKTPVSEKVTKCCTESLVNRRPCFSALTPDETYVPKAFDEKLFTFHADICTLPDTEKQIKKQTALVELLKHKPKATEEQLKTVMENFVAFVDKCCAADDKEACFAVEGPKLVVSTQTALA
Method: FIG. 4 illustrates the difference in the hydrazone hydrolysis with and without the addition of BSA of product example 1. A freshly prepared 10 mM methanol solution of product example 1 was diluted with an ammonium acetate (10 mM) BSA (5 μM) solution to a final concentration of 20 μM. The free soluble hydrazone was analyzed via RP-HPLC over a sample period of 24 h. The injection volume was 20 μL, the sample was stored at room temperature. The hydrazone peak was exploited for the determination of the hydrazone concentration. After the addition of BSA approximately […] of the available hydrazone was directly associated to the protein. Afterwards, the free hydrazone concentration was almost constant, between 96% and 91%, over the sample period.

[4] = tested on: tubulin; test: Tubulin polymerization assay (Cytoskeleton, Inc.); format: biochemical; details: various concentrations
Method: The tubulin polymerization assay (Cytoskeleton, Inc., Denver, Colo., USA, #BK011) was performed in accordance to the instruction manual.

fraction unbound at 20 µM [3]: ~0.83
SMILES: Oc1ccc(C=NNc2c(Cl)cc(C(F)(F)F)cc2Cl)c(O)c1 [Example 1, 4-((2-(2,6-Dichloro-4-(trifluoromethyl)phenyl)hydrazono)methyl)benzene-1,3-diol]
solubility [1]: ≥ 50 µM
change in conformation of the HTT-Q53 protein detected by the conformational CAG antibody [2]: time-dependent change in conformation
effect on tubulin polymerization [4]: no effect

SMILES: Oc1ccc(C=NNc2c(F)c(F)c(F)c(F)c2F)c(O)c1 [Example 23, 4-((2-(Perfluorophenyl)hydrazono)methyl)benzene-1,3-diol]
solubility [1]: 100 µM (≈ 31.8 µg/mL)
change in conformation of the HTT-Q53 protein detected by the conformational CAG antibody [2]: time-dependent change in conformation

SMILES: O=[N+]([O-])c1ccc(NN=Cc2ccc(O)cc2O)cc1 [Example 33, 4-((2-(4-Nitrophenyl)hydrazono)methyl)benzene-1,3-diol]
solubility [1]: ≥ 30 µM

Reference: patent publication US9512066B2, “Enhancers of protein degradation” (MAX-DELBRUCK-CENTRUM FUR MOLEKULARE MEDIZIN, priority 2009, dated 2016)
